In US7674813B2, “Heterocyclic sulfonamide inhibitors of beta amyloid production containing an azole” (Wyeth, priority 2004, dated 2010):

Experiments:
Format in all cases: cell-based
[1] = system: amyloid precursor protein (APP) proteolysis; assay: Repressor Release Assay (RRA); parameters: key to RRA data (footnote symbols): **: Inactive due to toxicity; however, this compound, at 3-4 μM, reduces Aβ levels by 50% in CHO cells transfected with human APP695 as measured by ELISA without exhibiting toxicity.; ***: Inactive; however, this compound, at 1-4 μM, reduces Aβ levels by 50% in CHO cells transfected with human APP695 as measured by ELISA without exhibiting toxicity; conditions: transfected CHO-K1 cells; for fold induction at 20 µg/mL: Cricetulus griseus, CHO-K1, all compounds tested at 20 μg/mL, luciferase activity over diluent control, read-out: RRA data (Fold increase of APPI)
Protocol: The beta amyloid inhibitory activity of many of the compounds of the present invention has been determined using the Repressor Release Assay (RRA). See, Table 3 below. A compound is considered active in RRA if it leads to at least a 1.5 fold increase in luciferase activity at 20 μg/mL and is non-toxic.
The compound is considered active in RRA if it leads to at least a 1.5 fold increase in APPI as measured by an increase in luciferase activity at 20 μg/mL and is non-toxic. Shuey, D. J., Sheiffele, P., Jones, D., Cockett, M. I., and Quinet, E. M. (1999) Repressor release: a useful tool for monitoring amyloid precursor protein (APP) proteolysis in mammalian cells. Society for Neuroscience Abstracts, Vol. 25, 29th Annual Meeting of Society for Neuroscience, Miami Beach, Fla., Oct. 23-28, 1999.
CHO—K1 cells are cultured in whole DMEM media (DMEM—High Glucose with 10% fetal bovine serum, 1% Non-essential Amino Acids, and 1% Penicillin-Streptomycin) at 37° C. with 5% CO2. Two million cells are plated into 10-cm dishes 24 hrs prior to transfection.
Transient transfections are completed as recommended by Gibco BRL using their Lipofectamine Plus system. First, 6 μg of pRSVO-luc and 6 μg of APP-lacI construct DNA are added to 460 μL Opti-Mem transfection media and incubated with 30 μL Plus reagent for 15 minutes. Then, a lipid mixture of 40 μL Lipofectamine reagent and 460 μL Opti-Mem transfection media is incubated with the DNA-Plus reagent mixture for 15 minutes. During the DNA-lipid incubation, the CHO—K1 cells are washed once and covered in 5.0 mL DMEM media without Penicillin-Streptomycin. The DNA-lipid preparation is then layered onto these cells and incubated at 37° C. overnight.
One and one half million transfected cells per well (100 μL total volume) are plated into sterile, opaque Packard 96-well Cultur-Plates in clear DMEM whole media (DMEM—without phenol red) and incubated at 37° C. with 5% CO2 for 3-5 hours.
Compounds are diluted using two different protocols; one protocol is used for compounds supplied neat (weighed powder in vial) and the other protocol is used for compounds supplied in solution (20 mM in DMSO in 96-well plates). For both protocols, 25 mM Hepes and 25 mM Hepes/1% DMSO are prepared fresh to be used as diluent. The Hepes/DMSO is used as the diluent control on all experimental plates.
The following Table 1 depicts the steps for compound dilution (the last step is the addition of compound to cells/media in tissue culture plate):
Because some compounds arrive in 96-well format at 20 mM, the following Table 2 represents the protocol for their dilution (an average molecular weight of these compounds was used to calculate these dilutions and as above, the last step is the addition of compound to cells/media in tissue culture plate):
Once compounds are diluted, they are applied in duplicate on cells in tissue culture plates (prepared above). Cells are incubated with compound at 37° C. with 5% CO2 for an additional 36-48 hours.
Luciferase assays (LucLite reagent, Packard) are performed and are read on a Packard TopCount instrument. Media is removed from each 96-well plate and replaced with 100 μL PBS per well (with Mg^2+ and Ca^2+). An equal volume (100 μL) of the LucLite lysis/substrate buffer is added to each well and the plates are sealed and mixed in the dark on a rotary shaker for 15-30 minutes at room temperature. Luciferase readings are then taken on the TopCount instrument. Measurements are expressed as relative light units (RLU) and are calculated and analyzed in MS Excel as follows:
Fold Increase: amount of luciferase activity (measured in relative light units) over diluent control.
SEM: standard error of the mean for fold increase.
Activity: A compound is considered active if it results in at least a 1.5 fold increase in luciferase activity at 20 μg/mL.
Toxicity: determined by loss of signal (<0.75 fold increase).

[2] = system: beta amyloid 42; assay: Aβ40/42 ELISA Assay (Aβ42); conditions: CHO cells carrying the APP-REP-NL plasmid, 22 hours, sandwich ELISA; for EC50: Cricetulus griseus
Protocol: (§1) Compounds are diluted from DMSO stocks to 2 μM and below in a cell culture medium. Compounds are then applied to CHO cells carrying the APP-REP-NL plasmid [Sudhir et. al, J. Biolog. Chem. 267:25602-25608 (1992)] for a period of 22 hours. After the conditioning period, medium is collected, diluted in assay buffer containing protein, and samples, controls, and synthetic peptide standards are incubated on a prepared ELISA plate. Using a sandwich ELISA with antibodies specifically directed against the carboxyl terminus of beta amyloid 40 or 42 (analogous to the method reported by Haugabook et al., J. Neurosci. Methods 108:171-179 (2001) but using goat anti-mouse IgG1 (source: Southern Biotech) as the anchor, 6E10 as the capture antibody (Source: SENETEK), rabbit antiAβ40 and antiAβ42 (source: QCB) and APL-donkey anti-rabbit IgG (H+L, source: Southern Biotech) as the detection antibody), the effect of the compound treatment on the cellular production of extracellular beta amyloid is quantified. Cells treated with compound are subsequently incubated in cell culture medium containing MTS-formazan. After a short incubation period, MTS/medium containing plates are read in a spectrophotometer to determine the extent to which compound toxicity affected the cell's metabolism and ability to synthesize beta amyloid.
(§2) A. Test Samples: compound samples are supplied as 20 mM stock solutions in a 100% DMSO solution.
(§3) B. APP-REP-NL cells: Qualified cell lines are carried from week to week using 1:100 dilutions and are cultured in DMEM supplemented with 1× antibiotic/antimycotic, 200 ug/ml of G418 antibiotic, and 10% certified fetal calf serum. Cells are also banked in liquid nitrogen. Periodically, beta amyloid production is assessed, and cells are either kept in culture or replaced with progenitors at full expression.
(§4) C. Antibodies: From certified lots that have already been qualified in this assay. Antibodies are stored in small frozen aliquots at −80° C. that are thawed and used.
(§5) A compound is considered active if it has an EC50 for Aβ40 reduction of <100 μM and no toxicity at doses in the vicinity of the EC50.

[3] = system: beta amyloid 40; assay: Aβ40/42 ELISA Assay (Aβ40); conditions: Cricetulus griseus; CHO cells carrying the APP-REP-NL plasmid, 22 hours, sandwich ELISA
Protocol: as §1, §2, §3, §4, §5

EC50 [2]	EC50 [3]	Structure (SMILES)	fold induction at 20 µg/mL [1]	Effect on Aβ42 production [2]	RRA data (footnote symbols) ([1]; tested at 20 μg/mL)
5100 nM	4000 nM	CC(C)C(NS(=O)(=O)c1ccc(Cl)s1)c1ccnn1-c1ccc(F)cc1 (racemic) [Example 15, 5-Chloro-N-{1-[1-(4-fluorophenyl)-1H-pyrazol-5-yl]-2-methylpropyl}thiophene-2-sulfonamide]	2.8		
	21900 nM	CC(C)[C@@H](NS(=O)(=O)c1ccc(Cl)s1)c1ccnn1-c1ccc(F)cc1 (stereo in doubt) [Example 41, 5-Chloro-N-{(1R)-1-[1-(4-fluorophenyl)-1H-pyrazol-5-yl]-2-methylpropyl}thiophene-2-sulfonamide]		increase	
1000 nM	1000 nM	CC(C)[C@H](NS(=O)(=O)c1ccc(Cl)s1)c1ccnn1-c1ccc(F)cc1 (stereo in doubt) [Example 42, 5-Chloro-N-{(1S)-1-[1-(4-fluorophenyl)-1H-pyrazol-5-yl]-2-methylpropyl}thiophene-2-sulfonamide]			
1000 nM	1000 nM	CCC(CC)C(NS(=O)(=O)c1ccc(Cl)s1)c1ccnn1Cc1ccc(OC)cc1 (centres unmarked) [Example 1, 5-Chloro-N-{2-ethyl-1-[1-(4-methoxybenzyl)-1H-pyrazol-5-yl]butyl}thiophene-2-sulfonamide]	7.8		
13000 nM	6400 nM	CCC(CC)C(NS(=O)(=O)c1ccc(Cl)cc1)c1ccnn1Cc1ccc(OC)cc1 (centres unmarked) [Example 2, 4-Chloro-N-{2-ethyl-1-[1-(4-methoxybenzyl)-1H-pyrazol-5-yl]butyl}benzenesulfonamide]	11.3		
10000 nM	6800 nM	CCC(CC)C(NS(=O)(=O)c1ccc(Br)cc1)c1ccnn1Cc1ccc(OC)cc1 (centres unmarked) [Example 3, 4-Bromo-N-{2-ethyl-1-[1-(4-methoxybenzyl)-1H-pyrazol-5-yl]butyl}benzenesulfonamide]	5.9		
1300 nM	1800 nM	COc1ccc(Cn2nccc2C(C)NS(=O)(=O)c2ccc(Cl)s2)cc1 (centres unmarked) [Example 4, 5-Chloro-N-{1-[1-(4-methoxybenzyl)-1H-pyrazol-5-yl]ethyl}thiophene-2-sulfonamide]	2.3		
900 nM	1100 nM	COc1ccc(Cn2nccc2C(NS(=O)(=O)c2ccc(Cl)s2)C(C)C)cc1 (centres unmarked) [Example 5, 5-Chloro-N-{1-[1-(4-methoxybenzyl)-1H-pyrazol-5-yl]-2-methylpropyl}thiophene-2-sulfonamide]	3.5		
1400 nM	1500 nM	CCCC(NS(=O)(=O)c1ccc(Cl)s1)c1ccnn1Cc1ccc(OC)cc1 (centres unmarked) [Example 6, 5-Chloro-N-{1-[1-(4-methoxybenzyl)-1H-pyrazol-5-yl]butyl}thiophene-2-sulfonamide]	4.7		
2700 nM	2400 nM	CCCCn1nccc1C(NS(=O)(=O)c1ccc(Cl)s1)C(CC)CC (centres unmarked) [Example 7, N-[1-(1-Butyl-1H-pyrazol-5-yl)-2-ethylbutyl]-5-chlorothiophene-2-sulfonamide]	5.4		
10100 nM	4000 nM	CCC(CC)C(NS(=O)(=O)c1ccc(Cl)s1)c1ccnn1-c1ccc(OC)cc1 (centres unmarked) [Example 10, 5-Chloro-N-{2-ethyl-1-[1-(4-methoxyphenyl)-1H-pyrazol-5-yl]butyl}thiophene-2-sulfonamide]	1.7		
2700 nM	1000 nM	CCC(CC)C(NS(=O)(=O)c1ccc(Cl)s1)c1ccnn1-c1ccc(O)cc1 (centres unmarked) [Example 11, 5-Chloro-N-{2-ethyl-1-[1-(4-hydroxyphenyl)-1H-pyrazol-5-yl]butyl}thiophene-2-sulfonamide]	3		
3300 nM	1400 nM	CC(C)C(NS(=O)(=O)c1ccc(Cl)s1)c1ccnn1-c1ccccc1 (centres unmarked) [Example 12, 5-Chloro-N-[2-methyl-1-(1-phenyl-1H-pyrazol-5-yl)propyl]thiophene-2-sulfonamide]			***
5100 nM	4800 nM	CC(NS(=O)(=O)c1ccc(Cl)s1)c1ccnn1-c1ccccc1 (centres unmarked) [Example 13, 5-Chloro-N-[1-(1-phenyl-1H-pyrazol-5-yl)ethyl]thiophene-2-sulfonamide]	6.4		
1200 nM	1200 nM	Cc1ccc(-n2nccc2C(NS(=O)(=O)c2ccc(Cl)s2)C(C)C)cc1 (centres unmarked) [Example 14, 5-Chloro-N-{2-methyl-1-[1-(4-methylphenyl)-1H-pyrazol-5-yl]propyl}thiophene-2-sulfonamide]	17.7		
10000 nM	4200 nM	CCC(CC)C(NS(=O)(=O)c1ccc(Cl)s1)c1ccnn1-c1ccccc1 (centres unmarked) [Example 17, 5-Chloro-N-[2-ethyl-1-(1-phenyl-1H-pyrazol-5-yl)butyl]thiophene-2-sulfonamide]			
		CCC(CC)C(NS(=O)(=O)c1ccc(Cl)s1)c1ncnn1Cc1ccc(F)cc1 (centres unmarked) [Example 19, 5-Chloro-N-{2-ethyl-1-[1-(4-fluorobenzyl)-1H-1,2,4-triazol-5-yl]butyl}thiophene-2-sulfonamide]	3.9		
	19400 nM	CCC(CC)C(NS(=O)(=O)c1ccc(Cl)s1)c1nccn1Cc1ccccc1 (centres unmarked) [Example 28, N-[1-(1-Benzyl-1H-imidazol-2-yl)-2-ethylbutyl]-5-chlorothiophene-2-sulfonamide]	1.5		
67200 nM	12800 nM	O=S(=O)(NC(Cc1ccccc1)c1ccnn1-c1ccc(F)cc1)c1ccc(Cl)s1 (centres unmarked) [Example 35, 5-Chloro-N-{1-[1-(4-fluorophenyl)-1H-pyrazol-5-yl]-2-phenylethyl}thiophene-2-sulfonamide]			
